US9211310B2, “Use of a Chinese medicine composition in preparing medicaments for treating secondary prevention of myocardial infarction” (TASLY PHARMACEUTICAL GROUP CO., LTD, priority 2010, dated 2015)

Test system: patients after acute myocardial infarction
Assay: Life quality, Seattle Angina Questionnaire (SAQ), same clinical trial
Type: in vivo, human
Conditions: FAS; 6 months after treatment
Source text: 3508 patients who were in accordance with the diagnostic standards of AMI for 28 days to 2 years and differentiated as Qi deficiency and blood stagnation syndrome by TCM were studied. 0.5 g Chinese medicine composition prepared by the method of EXAMPLE 1 (Coded as QSYQ) was administrated half an hour after meal, 3 times per day.
There were 19 questions in the Seattle angina questionnaire (SAQ), including 5 parts: physical limitation (PL), anginal stability (AS), anginal frequency (AF), treatment satisfaction (TS) and disease perception (DP). After being given necessary explanation by doctors, the questions were answered independently by patients.
They included the overall survival time, angina pectoris score, TCM symptom score and life quality score, where angina pectoris score, TCM symptom score and life quality score were evaluated at randomization, in 1st, 3rd, 6th, 9th, 12th month after treatment and 18th month after follow-up.
All evaluation results of SAQ were described during the period of observation, and Wilcoxon rank sum test was used for inter-group comparison.
The evaluation results in the SAQ were depicted in different observations, and inter-group comparison was tested by Wilcoxon Rank-sum test.

Q: With `CC(=O)Oc1ccccc1C(=O)O` [Control group, aspirine] as the compound, how does the “SAQ 4th question, 1-3 times per day: number of patients” value read?
A: 82

Q: And the “SAQ 4th question, <1 time per week: % of patients” value?
A: (11.98%)

Q: And the “SAQ 4th question, <1 time per week: number of patients” value?
A: 209

Q: What about the “SAQ 4th question, Not used: % of patients” value of the same compound?
A: (58.37%)

Q: And the “SAQ 4th question, Not used: number of patients” value?
A: 1018

Q: And the “SAQ 4th question, ≧3 times per week: % of patients” value?
A: (7.28%)

Q: And the “SAQ 4th question, ≧3 times per week: number of patients” value?
A: 127

Q: What about the “SAQ 4th question, ≧4 times per day: % of patients” value of the same compound?
A: (0.11%)

Q: And the “SAQ 4th question, ≧4 times per day: number of patients” value?
A: 2

Q: And the “SAQ 5th question, 1-2 times per week: % of patients” value?
A: (26.38%)

Q: And the “SAQ 5th question, 1-2 times per week: number of patients” value?
A: 460

Q: What about the “SAQ 5th question, 1-3 times per day: % of patients” value of the same compound?
A: (11.53%)

Q: And the “SAQ 5th question, 1-3 times per day: number of patients” value?
A: 201

Q: What about the “SAQ 5th question, <1 time per week: % of patients” value of the same compound?
A: (28.10%)

Q: And the “SAQ 5th question, <1 time per week: number of patients” value?
A: 490

Q: What about the “SAQ 5th question, No onset: % of patients” value of the same compound?
A: (4.30%)

Q: And the “SAQ 5th question, No onset: number of patients” value?
A: 75

Q: And the “SAQ 5th question, ≧3 times per week: % of patients” value?
A: (28.84%)

Q: And the “SAQ 5th question, ≧3 times per week: number of patients” value?
A: 503

Q: And the “SAQ 5th question, ≧4 times per day: % of patients” value?
A: (0.86%)

Q: What about the “SAQ 5th question, ≧4 times per day: number of patients” value of the same compound?
A: 15

Q: What about the “SAQ 6th question, Dissatisfied: % of patients” value of the same compound?
A: (0.17%)

Q: What about the “SAQ 6th question, Dissatisfied: number of patients” value of the same compound?
A: 3

Q: And the “SAQ 6th question, Highly satisfied: % of patients” value?
A: (21.62%)

Q: And the “SAQ 6th question, Highly satisfied: number of patients” value?
A: 377

Q: What about the “SAQ 6th question, Mostly dissatisfied: % of patients” value of the same compound?
A: (1.95%)

Q: What about the “SAQ 6th question, Mostly dissatisfied: number of patients” value of the same compound?
A: 34

Q: What about the “SAQ 6th question, Mostly satisfied: % of patients” value of the same compound?
A: (55.73%)

Q: And the “SAQ 6th question, Mostly satisfied: number of patients” value?
A: 972

Q: And the “SAQ 6th question, Partly satisfied: % of patients” value?
A: (20.53%)

Q: And the “SAQ 6th question, Partly satisfied: number of patients” value?
A: 358

Q: What about the “SAQ 7th question, Dissatisfied: % of patients” value of the same compound?
A: (0.11%)

Q: And the “SAQ 7th question, Dissatisfied: number of patients” value?
A: 2

Q: And the “SAQ 7th question, Highly satisfied: % of patients” value?
A: (25.03%)

Q: What about the “SAQ 7th question, Highly satisfied: number of patients” value of the same compound?
A: 436

Q: And the “SAQ 7th question, Mostly dissatisfied: % of patients” value?
A: (1.32%)

Q: What about the “SAQ 7th question, Mostly dissatisfied: number of patients” value of the same compound?
A: 23

Q: What about the “SAQ 7th question, Mostly satisfied: % of patients” value of the same compound?
A: (58.21%)

Q: And the “SAQ 7th question, Mostly satisfied: number of patients” value?
A: 1014

Q: What about the “SAQ 7th question, Partly satisfied: % of patients” value of the same compound?
A: (15.33%)

Q: And the “SAQ 7th question, Partly satisfied: number of patients” value?
A: 267

Q: And the “SAQ Question 1-1 Mildly limited, number of patients” value?
A: 29

Q: What about the “SAQ Question 1-1 Mildly limited, percent of patients” value of the same compound?
A: (1.66%)

Q: And the “SAQ Question 1-1 Moderately limited, number of patients” value?
A: 4

Q: What about the “SAQ Question 1-1 Moderately limited, percent of patients” value of the same compound?
A: (0.23%)

Q: And the “SAQ Question 1-1 Not limited, number of patients” value?
A: 1638

Q: What about the “SAQ Question 1-1 Not limited, percent of patients” value of the same compound?
A: (93.92%)

Q: What about the “SAQ Question 1-1 Other reasons, number of patients” value of the same compound?
A: 3

Q: What about the “SAQ Question 1-1 Other reasons, percent of patients” value of the same compound?
A: (0.17%)

Q: And the “SAQ Question 1-1 Severely limited, number of patients” value?
A: 1

Q: What about the “SAQ Question 1-1 Severely limited, percent of patients” value of the same compound?
A: (0.06%)

Q: What about the “SAQ Question 1-1 Slightly limited, number of patients” value of the same compound?
A: 69

Q: What about the “SAQ Question 1-1 Slightly limited, percent of patients” value of the same compound?
A: (3.96%)

Q: What about the “SAQ Question 1-2 Mildly limited, number of patients” value of the same compound?
A: 27

Q: And the “SAQ Question 1-2 Mildly limited, percent of patients” value?
A: (1.55%)

Q: And the “SAQ Question 1-2 Moderately limited, number of patients” value?
A: 8

Q: And the “SAQ Question 1-2 Moderately limited, percent of patients” value?
A: (0.46%)

Q: What about the “SAQ Question 1-2 Not limited, number of patients” value of the same compound?
A: 1615

Q: What about the “SAQ Question 1-2 Not limited, percent of patients” value of the same compound?
A: (92.60%)

Q: What about the “SAQ Question 1-2 Other reasons, number of patients” value of the same compound?
A: 6

Q: What about the “SAQ Question 1-2 Other reasons, percent of patients” value of the same compound?
A: (0.34%)

Q: What about the “SAQ Question 1-2 Severely limited, number of patients” value of the same compound?
A: 1

Q: And the “SAQ Question 1-2 Severely limited, percent of patients” value?
A: (0.06%)

Q: What about the “SAQ Question 1-2 Slightly limited, number of patients” value of the same compound?
A: 87

Q: What about the “SAQ Question 1-2 Slightly limited, percent of patients” value of the same compound?
A: (4.99%)

Q: What about the “SAQ Question 1-6: Mildly limited, patients (%)” value of the same compound?
A: (16.49%)

Q: And the “SAQ Question 1-6: Moderately limited, patients (%)” value?
A: (11.78%)

Q: What about the “SAQ Question 1-6: Not limited, patients (%)” value of the same compound?
A: (34.20%)

Q: What about the “SAQ Question 1-6: Other reasons, patients (%)” value of the same compound?
A: (0.98%)

Q: And the “SAQ Question 1-6: Severely limited, patients (%)” value?
A: (3.85%)

Q: What about the “SAQ Question 1-6: Slightly limited, patients (%)” value of the same compound?
A: (32.70%)

Q: What about the “SAQ Question 1-7: Mildly limited, patients (%)” value of the same compound?
A: (21.23%)

Q: What about the “SAQ Question 1-7: Moderately limited, patients (%)” value of the same compound?
A: (13.48%)

Q: And the “SAQ Question 1-7: Not limited, patients (%)” value?
A: (14.52%)

Q: What about the “SAQ Question 1-7: Other reasons, patients (%)” value of the same compound?
A: (3.53%)

Q: What about the “SAQ Question 1-7: Severely limited, patients (%)” value of the same compound?
A: (15.33%)

Q: What about the “SAQ Question 1-7: Slightly limited, patients (%)” value of the same compound?
A: (31.93%)
